Measurements as given in US20250177357A1, “METHODS FOR TREATING HYPERTROPHIC CARDIOMYOPATHY” (priority 2021, published 2025).

Key:
Type in all cases: in vivo, human
[1] = Phase 1 plasma pharmacokinetics, CYP2D6 poor metabolizer cohort; conditions: CYP2D6 poor metabolizers, single 10 mg, n = 7
Protocol: CYP2D6 poor metabolizer cohort.
CYP2D6 genotypes were determined at screening for all study participants; those identified as CYP2D6-PMs were excluded from the SAD and MAD cohorts but were invited to participate in the CYP2D6-PM cohort. The first individual in the CYP2D6-PM cohort was dosed after the SAD 25-mg cohort (FIG. 2). […] Nine participants were randomized (7:2) with a sentinel dosing group consisting of the first 2 participants treated.
Pharmacokinetic analyses. For all study groups, blood samples for PK assessment were obtained pre-dose, up to 12 times daily on day 1, and then at regular intervals throughout the study. Blood samples were collected according to the following schedule: SAD Cohorts: Day 1: pre-dose and 0.25, 0.5, 1, 1.5, 2, 2.5, 3, 4, 6, 8, 12, 16, 24, 36, 48, 72, 96, and 216 h post dose. MAD Cohorts (14-day Dosing): Day 1: pre-dose and 0.25, 0.5, 1, 1.5, 2, 2.5, 3, 4, 6, 8, and 12 h post dose; Days 2, 4, 5, 6, and 9: pre-dose (corresponding to trough samples following dosing on days 1, 3, 4, 5, and 8) and 1.5 h post dose; Days 3, 7, 8, 10, 11, 12, and 13: pre-dose (corresponding to trough samples following dosing on days 2, 6, 7, 9, 10, 11, and 12); Day 14: pre-dose and 0.25, 0.5, 1.5, 2, 2.5, 3, 4, 6, 8, 12, 16, 24, 36, 48, 72, and 168 h post dose. […]

[2] = Phase 1 plasma pharmacokinetics, food-effect cohort; conditions: single 10 mg
Protocol: Food-effect cohort. […] Participants were randomized in a 1:1 ratio to 1 of 2 sequences: fasted/fed or fed/fasted.
Pharmacokinetic analyses. For all study groups, blood samples for PK assessment were obtained pre-dose, up to 12 times daily on day 1, and then at regular intervals throughout the study. Blood samples were collected according to the following schedule: SAD Cohorts: Day 1: pre-dose and 0.25, 0.5, 1, 1.5, 2, 2.5, 3, 4, 6, 8, 12, 16, 24, 36, 48, 72, 96, and 216 h post dose. […] CYPD6-PM Cohort: Day 1: pre-dose and 0.25, 0.5, 1, 1.5, 2, 2.5, 3, 4, 6, 8, 12, 16, 24, 36, 48, 72, 96, 216, 312, and 552 h post dose. Food-Effect Cohort: Day 1: pre-dose and 0.25, 0.5, 1, 1.5, 2, 2.5, 3, 4, 6, 8, 12, 16, 24, 36, 48, 72, 96, 144, and 216 h post dose. Standard non-compartmental methods were used to calculate PK parameters using Phoenix® WinNonlin® Version 7.0; actual sample collection times were utilized.

[3] = system: patients with symptomatic obstructive HCM (oHCM) receiving disopyramide; test: Phase 2 trial in oHCM, Cohort 3: CK-274 in combination with disopyramide
Description: Cohort 3 included patients receiving disopyramide.
Body weight was ≥45 kg at screening; 4. […] Adequate acoustic windows for echocardiography; 6. Had LVOT-G during screening as follows for Cohorts 1 and 2: (a) resting gradient≥50 mmHg; or (b) resting gradient≥30 mmHg and <50 mmHg with post-Valsalva LVOT-G≥50 mmHg; or as follows for Cohort 3: persistent resting LVOT obstruction (≥30 mmHg) and provoked LVOT obstruction (≥50 mmHg); 7. Left ventricular ejection fraction (LVEF)≥60% at screening; 8. […] Taking stable doses of disopyramide for >4 weeks prior to screening (Cohort 3 only).
Patients up-titrated to Dose 2 if either of the following conditions were met on echocardiography: (1) resting LVOT-G≥30 mmHg and the biplane LVEF≥50%; or (2) resting LVOT-G<30 mmHg, post-Valsalva LVOT-G≥50 mmHg, and the biplane LVEF≥50%. Otherwise, the patient remains on Dose 1. If LVEF is <50% at Week 2, the patient was down-titrated to placebo.
Overall, treatment duration for each patient in the study was 10 weeks with an echocardiogram conducted 2 weeks after the last dose. Efficacy endpoints included resting and provoked LVOT gradients, NYHA class, and NT-proBNP.

CCc1nc(-c2ccc3c(c2)CC[C@H]3NC(=O)c2cnn(C)c2)no1 [aficamten, (R)—N-(5-(5-ethyl-1,2,4-oxadiazol-3-yl)-2,3-dihydro-1H-inden-1-yl)-1-methyl-1H-pyrazole-4-carboxamide]
CL/F, mean ± SD [1]: 3.6 ± 1.4 L/h
CL/F, mean ± SD ([2]; Fasted, n = 4): 2.8 ± 0.6 L/h
CL/F, mean ± SD ([2]; Fed, n = 7): 3.1 ± 0.9 L/h
Increase in Cmax when taken with food ([2]; fed vs fasted): approximately 30%
Moderate adverse events recorded ([3]; Cohort 3): six
New York Heart Association functional class ([3]; Cohort 3): improved in the majority of patients
Patients whose LVEF fell below the safety threshold of 50% ([3]; Cohort 3): no patients
Serious adverse events attributed to treatment ([3]; Cohort 3): no serious adverse events attributed to treatment
Average resting and post-Valsalva LVOT-G ([3]; Cohort 3, 5, 10, 15 mg, 10 weeks): substantial reductions
Patients with AEs related to study drug (per investigator) ([3]; Cohort 3, 13 patients): 2 (15.4) N (%)
Patients with TEAEs leading to drug interruption or termination ([3]; Cohort 3, 13 patients): 0 N (%)
Patients with TESAEs ([3]; Cohort 3, 13 patients): 0 N (%)
Patients with at least one TEAE ([3]; Cohort 3, 13 patients): 9 (69) N (%)
Patients with fatal TEAEs ([3]; Cohort 3, 13 patients): 0 N (%)
TEAE of LVEF <50% (Core Lab) ([3]; Cohort 3, 13 patients): 0 N (%)
Adverse events of asymptomatic atrial fibrillation ([3]; Cohort 3, patient with known prior history): One
Effect on LVOT-G compared with Cohort 1 patients (same CK-274 dose) ([3]; Cohort 3, patients treated with disopyramide): mostly attenuated
